Results on 1 compound are retold here after ChEMBL document CHEMBL1147341, “Unprecedented oxylipins from the marine green alga Acrosiphonia coalita” (J Nat Prod, 1993).

Active and inactive are the calls of the source. The rule behind the calls is not given here.

This test deals with Candida albicans. As to the kind of experiment: Antifungal activity against Candida albicans at 100 ug/disk by sensitive disk method. Format: functional, organism-based.

In the case of `CC[C@H](O)/C=C/C=C/C=C/C=O`, the outcome was Active.
